Like-named read-outs stand apart in the source and are kept apart here.
How the values were obtained:
[1] = tested on: AML cell lines (HL60/VCR, OCI-AML2, THP-1); assay: Viability of AML cell lines, MTS and Cell Titer Glo (FIGS. 2, 4, Table 2); format: cell-based, human; settings: 24 hours
Experimental: Representative human AML cell lines (FIG. 2A; upper and lower panels) HL60/VCR and (FIG. 2B; upper and lower panels) OCI-AML2 were treated with SACLAC for 24 and 48 hours. Viability was assessed by MTS assay at 24 and 48 hours and apoptosis was assessed by flow cytometry at 48 hours. Upper panels represent % viability and lower panels indicate % apoptosis.
(§1) AML cell lines and normal samples (PBMCs and/or CD34+ cells) were treated for 24 hours with SACLAC (FIG. 4A-7 cell lines) and similar AC inhibitor SABRAC (2-bromo-N-((2S,3R)-1,3-dihydroxyoctadecan-2-yl)acetamide) (FIG. 4B-four cell lines). Viability was assessed by MTS and Cell Titer Glo viability assays. EC50 values (FIG. 4C) were graphed to visualize fold-change between AML and normal cells with treatment of each compound. […] Cells tested for SABRAC were HL60/VCR and OCI-AML2 AML cell lines and two normal PBMC control samples (PBMC1 and PBMC2). The same four cell types were tested for SACLAC, as well as the AML cell line THP-1 and two normal CD34+ cell control samples (CD34+1 and CD34+2).
(§2) Next, we tested the toxicity of SACLAC and a similar published AC inhibitor SABRAC^17 to normal hematopoietic cells to ensure that AML cells are selectively targeted by the compound (FIG. 4A). […] This degree of selectivity was unexpected but extremely important for potential clinical use. […] This remarkable increase in selectivity is a surprising discovery that greatly exceeds the predicted similarity in compound behavior that one may expect with a simple substitution of one halogen for another (Cl for Br).

[2] = tested on: normal samples (PBMCs and/or CD34+ cells); assay: Viability of normal samples, MTS and Cell Titer Glo (FIG. 4, Table 2); format: cell-based; settings: 24 hours
Experimental: as §1, §2

With CCCCCCCCCCCCCCC[C@@H](O)[C@H](CO)NC(=O)CBr [SABRAC, 2-bromo-N-((2S,3R)-1,3-dihydroxyoctadecan-2-yl)acetamide, reference compound] as the molecule, how does the “Fold Change” value ([1]; EC50 Normal versus EC50 AML) read?
The value was 1.25.

And the EC50 ([1]; Homo sapiens, 24 h, mean of AML cell lines, read-out: EC50 AML)?
The EC50 was 0.36 µM.

And the EC50 ([2]; SACLAC: PBMC1, PBMC2, CD34+1, CD34+2, SABRAC: PBMC1, PBMC2, order of samples not given, read-out: EC50, single normal samples (FIG. 4A, 4B))?
The EC50 was 0.6 µM.

What about the EC50 ([2]; PBMC, 24 h, mean of normal samples (PBMCs and/or CD34+ cells), read-out: EC50 Normal) of the same molecule?
Its EC50 is 0.45 µM.
